# Results reported in US8268961B2, “Antibacterial peptides and analogues thereof” (Universita Degli Studi di Siena, priority 2004, dated 2012).
# Where two headings read alike, the source gives them in different places. Positions of bridges follow the written chain, without caps; N, C: chain ends. Chains are numbered I, II in the order given. No end group written: not given here.
# Columns and labels:
# [1] = test system: Staphylococus aureus MIU-68A; assay type: cell-based, Staphylococcus aureus
# Source text: MIC is defined as the lowest concentration, in an antibiotic dilution range, that inhibits visible bacterial growth. The importance of MIC sensitivity test is based on the principle that in vitro sensitivity provides a predictive indication of the in vivo efficacy of the antibiotic therapy. Values are expressed as molar concentration and compared to MIC values obtained with commercially available antibiotics such as amikacin, ceftriaxone and levofloxacin (Table 3).
# Reference strains (Escherichia coli ATCC 25922, Pseudomonas aeruginosa ATCC 27853, Staphylococus aureus ATCC 25923 and Chryseobacterium meningosepticum CCUG 4310) and several recent clinical isolates (including multidrug-resistant ones) of various species (Table 2) were used for conventional susceptibility testing experiments. Minimum Inhibitory Concentration (MIC) was determined by a standard microdilution assay as recommended by the National Commitee for Clinical Laboratory Standards (NCCLS) using cation-supplemented Mueller-Hinton (MH) broth (Oxoid Ltd. Basingstoke, UK) and a bacterial inoculum of 5×10^4 CFU per well, in a final volume of 100 μl. Results were recorded by visual inspection after 24 h of incubation at 37° C.
# [2] = Stability to plasmatic protease (HPLC); assay type: in vitro ADME, human
# Procedure: Since the use of peptides as therapeutic agents is severely limited by their in vivo half-life, the stability to human serum protease of the linear peptide L1 and of the MAP peptides M1, M4, M5 and M6 was evaluated. The peptides were incubated at the concentration of 10 mM with plasma and with human serum for 2 and 24 hours; the samples were subsequently analysed in HPLC on column C18 (see materials and methods) to evaluate the presence of linear and MAP peptide not digested by the protease.
# The various peptides in MAP form and the linear peptide (L1) were dissolved in H2O at the concentration of 10 mM and incubated with 10 μl of plasma and human serum for 2 and 24 hours at 37° C. To each sample were added 150 μl of methanol to block the proteolytic reaction; each sample was then centrifuged at 13,000 rpm for 2 min and to the supernatant were added 0.75 ml of 0.1% trifluoroacetic acid. The samples were analysed in reverse phase HPLC on a Vydac C18 semi-preparative column using a 30 min gradient of buffer B from 20% to 95% (buffer A: 0.1% trifluoroacetic acid/water; buffer B: 0.1% trifluoroacetic acid/methanol), to evaluate the presence of linear and MAP peptide after the proteolytic treatment.
# [3] = test system: Pichia pastoris yeast strain X33; experiment: Effect on Pichia pastoris yeast colonies; assay type: cell-based
# Procedure: To a volume of 50 μl of culture of Pichia pastoris grown 24 hour at 30° C. in YPD (Yeast Extract/Peptone/Dextrose) medium, 50 μl of MAP peptides (2 mg/ml) were added and left in incubation 150 min at 37° C. Subsequently, 50 μl of each incubation were plated on YPD solid medium and it was allowed to grow for 48 hours at 30° C. The number of colonies grown was compared with a control, where the yeast was not treated with the MAP.
# [4] = test system: E. coli plasmid vector pCEP4 DNA; experiment: DNA binding assay (gel retardation)
# Procedure: In an attempt to clarify the molecular mechanism of action, the authors examined the binding properties on DNA exerted by M6 dendrimeric peptide and magainin 2, an antimicrobial peptide which has a pore-forming activity on the cell membrane. The DNA binding abilities of M6 and magainin 2 were examined by analyzing the electrophoretic mobility of DNA bands at the various weight ratios of peptides to DNA on a 1% (w/v) agarose gel.
# Gel-retardation experiments were performed by mixing 200 ng of the E. coli plasmid vector pCEP4 (Invitrogen) with increasing amounts of M6 peptide in 20 μl of binding buffer (5% glycerol, 10 mM Tris-HCl (pH 8.0), 1 mM EDTA, 1 mM DTT, 20 mM KCl and 50 μg/ml BSA). The reaction mixtures were incubated at room temperature for 1 h. Subsequently, 4 μl of native loading buffer was added (40% saccarose, 0.25% bromophenol blue) and an aliquot of 12 μl was applied to a 1% agarose gel electrophoresis in 1 mM Tris borate-EDTA buffer.
# [5] = test system: Escherichia coli W03BG0025; assay type: cell-based
# Method in brief: (§1)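 cation-suppl. MH broth, std microdilution (NCCLS); 5×10^4 CFU/well; 24 h, 37° C; visual read; MIC = lowest conc. with no visible growth, molar units.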
# [6] = test system: Staphylococcus aureus ATCC 25923; assay type: cell-based; details: Staphylococcus aureus ATCC 25923, reference strain
# Method in brief: (§2)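 MIC, given in molar units, was taken as the lowest concentration without visible growth after 24 h at 37° C. Testing followed the NCCLS microdilution method using cation-supplemented Mueller-Hinton broth and 5×10^4 CFU per well.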
# [7] = test system: Acinetobacter baumannii AB1MG; assay type: cell-based
# Method in brief: as §1
# [8] = test system: Escherichia coli W03NO0013; assay type: cell-based
# Method in brief: as §1
# [9] = test system: Proteus mirabilis W03VA1144; assay type: cell-based
# Method in brief: as §1
# [10] = test system: Klebsiella pneumoniae W03NO0078; assay type: cell-based
# Method in brief: as §1
# [11] = test system: Enterobacter cloacae W03AN0041; assay type: cell-based
# Method in brief: as §1
# [12] = test system: Burkholderia cepacia SMC71; assay type: cell-based
# Method in brief: as §1
# [13] = test system: Klebsiella pneumoniae W03BG0019; assay type: cell-based
# Method in brief: as §1
# [14] = test system: Escherichia coli W99FI0077; assay type: cell-based; details: W99FI0077
# Method in brief: as §1
# [15] = test system: Enterobacter aerogenes W03BG0067; assay type: cell-based
# Method in brief: as §1
# [16] = test system: Escherichia coli ATCC 25922; assay type: cell-based; details: ATCC 25922
# Method in brief: as §1
# [17] = test system: Pseudomonas aeruginosa VA463/98; assay type: cell-based
# Method in brief: as §1
# [18] = test system: Klebsiella oxytoca W99FI00049; assay type: cell-based
# Method in brief: as §1
# [19] = test system: Klebsiella pneumoniae W99FI0057; assay type: cell-based; details: W99FI0057
# Method in brief: as §1
# [20] = test system: Citrobacter freundii W99FI00007; assay type: cell-based
# Method in brief: as §1
# [21] = test system: Acinetobacter baumannii AB7MG; assay type: cell-based
# Method in brief: as §1
# [22] = test system: Pseudomonas aeruginosa 891; assay type: cell-based; details: 891
# Method in brief: as §1
# [23] = test system: Pseudomonas aeruginosa 885149; assay type: cell-based; details: 885149
# Method in brief: as §1
# [24] = test system: Pseudomonas aeruginosa ATCC27853; assay type: cell-based; details: ATCC27853
# Method in brief: as §2
substance,measurement,setting,value
"I: QKKIRVRLSAKKA-OH / II: QKKIRVRLSAK / III: QKKIRVRLSA / IV: QKKIRVRLSA (amide I:11-IV:C, I:12-II:C, II:11-III:C) [M6, QKKIRVRLSA]",MIC (Molarity),[1],49 µM
same,Resistance to plasmatic protease: Plasma 2 h,[2],+
same,Resistance to plasmatic protease: Plasma 24 h,[2],+
same,Number of yeast colonies vs negative control,[3],did not differ from the negative control
same,Weight ratio of peptide to DNA at which migration of DNA is inhibited,"[4]; 200 ng pCEP4, 1% agarose gel, 1 h room temperature",> 0.2
same,DNA binding tightness relative to magainin 2,[4]; from gel retardation weight ratios,over 25 times
same,MIC (Molarity),[5],1.5 µM
same,MIC (Molarity),[6],>4.9e-05 M
same,MIC (Molarity),[6]; listed as QKKIRVRLSA,~10^−5 M
same,MIC (Molarity),[7],3 µM
same,MIC (Molarity),[8],1.5 µM
same,MIC (Molarity),[9],12 µM
same,MIC (Molarity),[10],3 µM
same,MIC (Molarity),[11],760 nM
same,MIC (Molarity),[12],12 µM
same,MIC (Molarity),[13],1.5 µM
same,MIC (Molarity),[14],1.5 µM
same,MIC (Molarity),[15],1.5 µM
same,MIC (Molarity),[16],1.5 µM
same,MIC (Molarity),[17],760 nM
same,MIC (Molarity),[18],12 µM
same,MIC (Molarity),[19],760 nM
same,MIC (Molarity),[20],3 µM
same,MIC (Molarity),[21],6 µM
same,MIC (Molarity),[22],1.5 µM
same,MIC (Molarity),[23],1.5 µM
same,MIC (Molarity),[24],760 nM
